# Assay results taken from ChEMBL document CHEMBL1201862, “PubChem BioAssay data set” (2004).
#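 Step 1: Grow cells in 96-well plates. Step 2: Expose to compound for 48 hours at 5 concentrations. Step 3: Interpolate endpoints linearly; if unreached, use highest concentration. The concentration for 50% growth inhibition is given as GI50.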 Activity calls are given as the source filed them. Rule as the data show it: active = GI50 up to about 1.1 µM and inactive = higher.
# What was measured:
# Assay in all cases: DTP human tumour cell line panel, 48 h
# [1] = system: RXF 393
# [2] = system: BT-549
# [3] = system: CCRF-CEM
# [4] = system: EKVX
# [5] = system: SR
# [6] = system: SW-620
# [7] = system: MDA-N
# [8] = system: SNB-19
# [9] = system: SK-MEL-5
# [10] = system: NCI-H522
# [11] = system: CAKI-1
# [12] = system: MOLT-4
# [13] = system: SF-539
# [14] = system: OVCAR-4
# [15] = system: OVCAR-8
# [16] = system: RPMI-8226
# [17] = system: KM12
# [18] = system: UACC-257
# [19] = system: NCI-H226
# [20] = system: MDA-MB-435
# [21] = system: SK-OV-3
# [22] = system: A549
# [23] = system: SF-295
# [24] = system: SNB-75
# [25] = system: MDA-MB-231
# [26] = system: HOP-92
# [27] = system: MCF7
# [28] = system: HOP-62
# [29] = system: SK-MEL-28
# [30] = system: IGROV-1
# [31] = system: PC-3
# [32] = system: HCT-116
# [33] = system: SN12C
# [34] = system: TK-10
# [35] = system: NCI/ADR-RES
# [36] = system: SK-MEL-2
# [37] = system: K562
# [38] = system: Hs-578T
# [39] = system: M14
# [40] = system: ACHN
# [41] = system: HL-60
# [42] = system: LOX IMVI
# [43] = system: NCI-H23
# [44] = system: U-251
# [45] = system: HCC 2998
# [46] = system: OVCAR-3
# [47] = system: SF-268
# [48] = system: OVCAR-5
# [49] = system: HT-29
# [50] = system: DU-145
# [51] = system: HCT-15
# [52] = system: UO-31
# [53] = system: COLO 205
# [54] = system: UACC-62
# [55] = system: Malme-3M
# [56] = system: T47D
# [57] = system: 786-0
smiles,measurement,setting,value
Cc1ccnc(NC(NC(=O)c2ccccc2)(C(F)(F)F)C(F)(F)F)c1,GI50,[1],> 100 µM (inactive)
same,GI50,[2],> 100 µM (inactive)
same,GI50,[3],75.9 µM (inactive)
same,GI50,[4],> 100 µM (inactive)
same,GI50,[5],41.1 µM (inactive)
same,GI50,[6],> 100 µM (inactive)
same,GI50,[7],> 100 µM (inactive)
same,GI50,[8],> 100 µM (inactive)
same,GI50,[9],> 100 µM (inactive)
same,GI50,[10],> 100 µM (inactive)
same,GI50,[11],> 100 µM (inactive)
same,GI50,[12],> 100 µM (inactive)
same,GI50,[13],> 100 µM (inactive)
same,GI50,[14],> 100 µM (inactive)
same,GI50,[15],> 100 µM (inactive)
same,GI50,[16],18.2 µM (inactive)
same,GI50,[17],> 100 µM (inactive)
same,GI50,[18],> 100 µM (inactive)
same,GI50,[19],> 100 µM (inactive)
same,GI50,[20],> 100 µM (inactive)
same,GI50,[21],> 100 µM (inactive)
same,GI50,[22],> 100 µM (inactive)
same,GI50,[23],> 100 µM (inactive)
same,GI50,[24],> 100 µM (inactive)
same,GI50,[25],> 100 µM (inactive)
same,GI50,[26],> 100 µM (inactive)
same,GI50,[27],> 100 µM (inactive)
same,GI50,[28],> 100 µM (inactive)
same,GI50,[29],> 100 µM (inactive)
same,GI50,[30],> 100 µM (inactive)
same,GI50,[31],> 100 µM (inactive)
same,GI50,[32],> 100 µM (inactive)
same,GI50,[33],> 100 µM (inactive)
same,GI50,[34],> 100 µM (inactive)
same,GI50,[35],> 100 µM (inactive)
same,GI50,[36],> 100 µM (inactive)
same,GI50,[37],> 100 µM (inactive)
same,GI50,[38],> 100 µM (inactive)
same,GI50,[39],> 100 µM (inactive)
same,GI50,[40],> 100 µM (inactive)
same,GI50,[41],> 100 µM (inactive)
same,GI50,[42],> 100 µM (inactive)
same,GI50,[43],> 100 µM (inactive)
same,GI50,[44],> 100 µM (inactive)
same,GI50,[45],> 100 µM (inactive)
same,GI50,[46],> 100 µM (inactive)
same,GI50,[47],> 100 µM (inactive)
same,GI50,[48],> 100 µM (inactive)
same,GI50,[49],> 100 µM (inactive)
same,GI50,[50],> 100 µM (inactive)
same,GI50,[51],> 100 µM
same,GI50,[52],> 100 µM (inactive)
same,GI50,[53],> 100 µM (inactive)
same,GI50,[54],> 100 µM (inactive)
same,GI50,[55],> 100 µM (inactive)
same,GI50,[56],> 100 µM (inactive)
same,GI50,[57],> 100 µM (inactive)
